Assay results from paper PMC3431236, “Characterization and optimization of ArtinM lectin expression in Escherichia coli” (BMC Biotechnology, 2012).

Legend:
[1] = molecular target: T1, rArtinM (recombinant ArtinM) (Artocarpus integer, UniProt Q7M1T4, Q3R); assay: affinity chromatography on D-mannose column, eluted with free D-mannose; type: binding; settings: PBS with 0.5 M NaCl, 4 °C; elution with 0.1 M D-mannose; unintentional Q3R carried by the recombinant protein
T1 construct: coding region from cDNA clone pLL29 in pET29a(+) (NdeI/BamHI, stop codon, untagged), E. coli BL21-CodonPlus(DE3)-RP; initiator Met removed, not N-acetylated; unintentional Q3R; monomer (native is tetramer)

[2] = molecular target: plant native ArtinM (Artocarpus integrifolia); assay: SEC; analytical size exclusion chromatography on TSK-G2000sw, 50 mM KH2PO4, 300 mM NaCl, pH 7.4; calibrated with thyroglobulin, immunoglobulin G, ovalbumin and myoglobin

T1 sequence (Q7M1T4 entry or part of it Q3R): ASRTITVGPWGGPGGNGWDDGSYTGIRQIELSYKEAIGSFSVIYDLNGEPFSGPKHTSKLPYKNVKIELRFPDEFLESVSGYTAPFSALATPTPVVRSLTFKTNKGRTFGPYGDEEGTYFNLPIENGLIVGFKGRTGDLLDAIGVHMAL

Row | stoichiometry N [2] | Compound | affinity chromatography on D-mannose column, eluted with free D-mannose [1]
1 |  | OC[C@H]1OC(O)[C@@H](O)[C@@H](O)[C@@H]1O (stereo partly drawn) [D-mannose] | purified from the E. coli lysate by affinity chromatography on a D-mannose column
2 | 4 | plant native ArtinM (natural protein) | 
